# Earlier results as cited in patent publication US20040265249A1, “Composition for protecting skin from damaging effects of ultraviolet light” (Desert Whale Jojoba Company, priority 2003, published 2004).
# Conditions: Yagi K, Ohishi N, 1979
structure (smiles),measurement,value
COc1cc(/C=C/C(=O)O)ccc1O [ferulic acid],antioxidant action,can scavenge free radicals
